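Where inhibition never reached the appropriate level, the endpoint shown equals the highest concentration tested. Otherwise, values were interpolated linearly from a five-concentration, 48-hour dose response in 96-well plates. GI50 is the concentration that inhibits growth by half. TGI: total growth inhibition.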
Assays:
Experiment in all cases: NCI-60 cell line screen, 48 h
A498 renal = test system: A498 renal
A549 NSCLC = test system: A549 NSCLC
CAKI-1 renal = test system: CAKI-1 renal
CCRF-CEM leukemia = test system: CCRF-CEM leukemia
HCC-2998 colon = test system: HCC-2998 colon
HOP-92 NSCLC = test system: HOP-92 NSCLC
LOX IMVI melanoma = test system: LOX IMVI melanoma
NCI-H522 lung = test system: NCI-H522 lung
SK-OV-3 ovarian = test system: SK-OV-3 ovarian
SW-620 colon = test system: SW-620 colon

SMILES	TGI (A498 renal)	TGI (A549 NSCLC)	TGI (CAKI-1 renal)	TGI (CCRF-CEM leukemia)	TGI (HCC-2998 colon)	TGI (HOP-92 NSCLC)	TGI (LOX IMVI melanoma)	TGI (NCI-H522 lung)	TGI (SK-OV-3 ovarian)	TGI (SW-620 colon)	GI50 (A498 renal)	GI50 (A549 NSCLC)	GI50 (CAKI-1 renal)	GI50 (CCRF-CEM leukemia)	GI50 (HCC-2998 colon)	GI50 (HOP-92 NSCLC)	GI50 (LOX IMVI melanoma)	GI50 (NCI-H522 lung)	GI50 (SK-OV-3 ovarian)	GI50 (SW-620 colon)
CC1(C)C(=O)N(c2ccccc2)C(=O)N1c1nc2ccccc2[nH]1	> 100 µM	> 100 µM	> 100 µM	> 100 µM	> 100 µM	> 100 µM	> 100 µM	> 100 µM	> 100 µM	36.3 µM										
O=C1c2cc(Br)ccc2-c2c1c1ccc([N+](=O)[O-])cc1c(=O)n2CCCCl	19.4 µM	> 33.9 µM	2.73 µM	0.245 µM	13 µM	23.9 µM	5.12 µM	5.38 µM	16 µM	> 100 µM	2.2 µM	0.114 µM	< 0.0285 µM	< 0.01 µM	1.55 µM	0.453 µM	< 0.0248 µM	0.0636 µM	0.16 µM	0.0533 µM
CCCCC#COP(=O)(OCC)OCC	> 100 µM	> 100 µM	> 100 µM	> 100 µM	> 100 µM		> 100 µM	> 100 µM	> 100 µM	> 100 µM										
CC1CC(c2ccccc2)=Nc2ccccc2S1(=O)=O (stereo not drawn)	28.2 µM	55.6 µM	48.5 µM	43.4 µM	19.5 µM	48.7 µM	31 µM	31 µM	36.4 µM	31.6 µM										
C=CCCCCCCCCCCCC1CCC(CC)N1 (stereo not drawn)	38.4 µM	24.8 µM	25.4 µM	29 µM	8.04 µM		24.5 µM	13.5 µM	31.6 µM	24.6 µM										
COc1ccc(/C=C/c2cc(OC)c(OC)c(OC)c2)cc1NC(=O)/C=C/c1ccc(F)cc1		> 100 µM	> 100 µM	> 31.1 µM	> 28.2 µM	> 100 µM	> 100 µM	5.73 µM	0.782 µM	> 100 µM	0.0352 µM	3.41 µM	2.11 µM	2.99 µM	1.94 µM	4.36 µM	6.15 µM	1.87 µM	0.0441 µM	2.85 µM
COc1ccc(NC(=O)C2C(=O)N(c3ccc(OC)cc3)C(=O)/C2=N/O)cc1 (stereo not drawn)	59.3 µM	> 78.7 µM	> 77.3 µM	> 100 µM	47.2 µM	47.8 µM	> 100 µM	53.4 µM	39 µM	> 100 µM										
COc1cc2nc(-c3ccc(C(F)(F)F)cc3)cc(OCCCN3CCOCC3)c2cc1OC	4.52 µM	20 µM	11.2 µM	19.3 µM	5.57 µM	4.66 µM	0.324 µM	15.3 µM	22.4 µM	15.4 µM	1.51 µM	1.04 µM	0.167 µM	2.79 µM	1.41 µM	1 µM	0.141 µM	2.52 µM	5.04 µM	3.51 µM
CCN(CC)CCC1CC/C(=C\c2ccc(OC)cc2)C1=O (stereo not drawn)	> 100 µM	> 100 µM	> 100 µM	> 100 µM	> 100 µM	> 100 µM	> 100 µM	> 100 µM		> 100 µM										
CC(=O)NC(CCCCNC(=O)OCc1ccccc1)C(=O)NCc1ccccc1 (stereo not drawn)	> 100 µM	> 100 µM	> 100 µM	> 100 µM	> 100 µM	> 100 µM	> 100 µM	> 100 µM	> 100 µM	> 100 µM										
Nc1nc(-c2cccc([N+](=O)[O-])c2)c(Br)c(=O)[nH]1	> 100 µM	> 71.4 µM	> 100 µM	> 100 µM	> 100 µM	> 100 µM	> 100 µM	> 100 µM	> 100 µM	> 100 µM										
CC1=CSC2=NC(c3ccc(Cl)c(Cl)c3)=CC(c3ccc(Cl)cc3)N12 (stereo not drawn)	> 100 µM	> 100 µM	> 100 µM	> 100 µM	> 100 µM	> 100 µM	> 100 µM	> 100 µM	> 100 µM	> 100 µM	> 100 µM	> 100 µM	> 100 µM	> 100 µM	> 100 µM	> 100 µM	> 100 µM	> 100 µM	> 100 µM	> 100 µM
C=CCc1cc2cccc(OC)c2oc1=O	> 100 µM	> 100 µM	> 100 µM	> 100 µM	> 100 µM	> 100 µM	> 100 µM	> 100 µM		> 100 µM										
COc1cc(-c2cnn(C)c2)ccc1Nc1ncc2ccnc(N[C@@H](C)C(C)(C)C)c2n1	> 100 µM	> 100 µM	> 100 µM	> 100 µM	> 100 µM	> 100 µM	> 100 µM	> 100 µM	> 100 µM	> 100 µM	> 100 µM	> 45.5 µM	> 100 µM	> 100 µM	> 100 µM	> 56.7 µM	5.43 µM	> 100 µM	> 68.1 µM	1.46 µM
COc1cc([C@H](C)c2ccc3ccccc3c2)cc(OC)c1OC	7.34 µM	> 100 µM		> 100 µM	> 100 µM	53 µM	> 100 µM	28.3 µM	61.6 µM	> 100 µM	0.255 µM	0.595 µM		0.274 µM	1.24 µM	0.908 µM	1.03 µM	0.376 µM	0.594 µM	0.0974 µM
Cc1cc(S(=O)(=O)Nc2nc(N)nc(N3N=CCC3C)n2)c(S)cc1Cl (stereo not drawn)	> 10 µM	> 10 µM	> 10 µM	> 10 µM	> 10 µM	> 10 µM	> 10 µM	> 10 µM	> 10 µM	> 10 µM										
CCCCNc1nc(NC(C)(C)C)nc(NC(C)(C)C)n1	50.4 µM	> 100 µM	> 100 µM	> 100 µM	> 100 µM	24.2 µM	23.6 µM	> 100 µM	> 100 µM	> 100 µM	2.98 µM	4.41 µM	5.55 µM	3.18 µM	8.05 µM	1.38 µM	3.39 µM	6.32 µM	19.4 µM	7.2 µM
